One compound from US20210255168A1, “A METHOD OF PRECISION CANCER THERAPY” (KING FAISAL SPECIALIST HOSPITAL & RESEARCH CENTRE, priority 2018, published 2021) can be followed below.

SMILES strings stand for the structures.

Common to all, as to format: cell-based
Assay [1] concerns ARE-containing mRNAs (uPA, IL-8, SLC2A1, uPAR, CXCR4, MMP13, PDL1, HuR) in MDA-MB-231 cells. In words: RT-qPCR of ARE-containing cancer gene mRNAs. The conditions noted are these: MDA-MB-231, 330 nM, 24 hr, vs DMSO. The procedure: Examples of the effect of several protein kinase inhibitors that were the outcome of the screen assay on one cancer gene, uPA, and a pro-inflammatory cytokine, IL-8 is given in FIG. 3.
These include IL-8, solute carrier family 2 member 1 (SLC2A1), uPA, uPAR, CXCR4, MMP13, PDL1, and HuR. The MDA-MB-231 cells were treated with 330 nM volasertib or DMSO for 24 hr, then quantitative RT-qPCR was performed in using FAM-labelled TaqMan probe of the above genes and normalized to GADPH (FIG. 11).
Cells were cultured in six-well plates and either treated with DMSO or drugs for 24 h. Total RNA was then extracted using Trizol reagent (TRI Reagent, Sigma-Aldrich, St Louis, Mo.). The cells were lysed directly on the culture dish by adding 1 ml of the TRI Reagent per 10 cm^2 surface area. […] The quantitative RT-QPCR was performed in multiplex in the Chroma 4 DNA Engine cycler (BioRad, Hercules, Calif., USA) using FAM-labelled TaqMan probes (Applied Biosystems, Foster City, Calif., USA) for TTP (ZFP36), HuR (ELAVL1), uPA (PLAU)-CXCR4, MMP-1, MMP-13, IL-8, PLK-1 while a VIC-labelled glyceraldehyde-3-phosphate dehydrogenase (GAPDH) probe was used as the endogenous control. Samples were amplified in triplicate and quantification of relative expression was performed using the estimation of quantitation cycle (Cq) method.

Assay [2] deals with TNF-α-ARE luciferase reporter in MDA-MB-231 cells. In words: Post-transcriptional ARE luciferase reporter assay (kinase inhibitor library screen). The conditions noted are these: 0.5, 2 and 5 μM, ARE and non-ARE reporters.
Assay [3] concerns uPA mRNA in MDA-MB-231 cells. In words: mRNA half-life (Actinomycin D, one-phase exponential decay). The conditions noted are these: MDA-MB-231, Actinomycin D 5 μg/ml; DMSO control >6 hr. How it is done:
For half-life experiments, 5 μg/ml of Actinomycin D (ActD; Sigma-Aldrich, St Louis, Mo.) was added to the cells for 1, 2, 4 and 6 h prior to extraction of total RNA using Trizol. The reverse transcription reaction and quantitative PCR were performed as described above. The half-life of mRNAs was estimated using the one-phase exponential decay method using GraphPad Prism software (GraphPad Software, San Diego, Calif.).
To study the influence of PLK-1 inhibition on ARE-containing mRNA stability, the effect of volasertib treatment on the half-life of uPA was analyzed. Half-life of uPA mRNA was reduced from >6 hr to 0.5 hr in response to volasertib treatment compared to the DMSO control (FIG. 12C). […] Compatible with the findings of the inventors, the higher the level of PLK-1, the lower the TTP expression.

For assay [4], the system named is MDA-MB-231 cells. In words: Migration assay (RTCA, without Matrigel). The following applies: MDA-MB-231, thirty hours after treatment. The procedure:
MDA-MB-231 cells were seeded in 6-well cell culture plates and incubated overnight. The cells were treated with the selected protein kinase inhibitors and incubated overnight. Then they were reseeded onto the invasion chamber in serum-free media at a density of 2×10^4 cells per well using 16-well CIM-Plate in Real-Time Cell Analysis (RTCA) Dual Plate (DP) Analyzer (ACEA Bioscinece, California, USA) that was loaded inside the incubator. The lower chambers to which cells will migrate were prepared to contain chemoattractant consisted of 10% FBS. For invasion assays, Matrigel (BioCoat, BD Biosciences, MA) which resembles the complex extracellular environment found in many tissues was prepared and used to coat the upper chamber of CIM plates. Invasion and migration were monitored continuously over 72-hour period using RTCA Software (ACEA Bioscinece, California, USA). The RTCA Instrument automatically monitors the cells every 15 minutes for 100 repetitions. For proliferation assays, the same principle was applied using a single chamber containing complete DMEM media (FIG. 10).
Based on the dose-response curve, 330 nM was selected to be used as a standard dose for the experiments. In the invasion assay, MDA-MB-231 cells were treated with volasertib or DMSO for 24 hr, then invasion was monitored for 30 hr.

Assay [5] has as its system MDA-MB-231, MCF7, and SKBR3 cell lines. In words: mRNA expression in breast cancer cell lines. The procedure: Cells were cultured in six-well plates and either treated with DMSO or drugs for 24 h. Total RNA was then extracted using Trizol reagent (TRI Reagent, Sigma-Aldrich, St Louis, Mo.). The cells were lysed directly on the culture dish by adding 1 ml of the TRI Reagent per 10 cm^2 surface area. Reverse transcription for preparation of cDNA was performed using 3 μg of total RNA, 150 ng random primers, 0.1 M dithiothreitol (DTT), 10 mM deoxynucleotide triphosphate (dNTP) and 200 U of SuperScript II (Invitrogen, Foster City, Calif.). The quantitative RT-QPCR was performed in multiplex in the Chroma 4 DNA Engine cycler (BioRad, Hercules, Calif., USA) using FAM-labelled TaqMan probes (Applied Biosystems, Foster City, Calif., USA) for TTP (ZFP36), HuR (ELAVL1), uPA (PLAU)-CXCR4, MMP-1, MMP-13, IL-8, PLK-1 while a VIC-labelled glyceraldehyde-3-phosphate dehydrogenase (GAPDH) probe was used as the endogenous control. Samples were amplified in triplicate and quantification of relative expression was performed using the estimation of quantitation cycle (Cq) method.
PLK1 kinase, as an example of kinases involved in cancer, is over-expressed in breast cancer cell lines, including MCF7, MDA-MB-231 and SKBR3 when compared to the normal-like MCF10A (FIG. 5A). Many kinases are either over-expressed or constitutively active or hyperactive in cancer states when compared to normal cells. As example of inhibitors that are found in the precision cancer therapy screen, Volasertib and Regorafenib (VEGFR kinase inhibitor) led to reduction in the level of ARE-containing mRNA, uPA in most of the cancer cell lines. (FIG. 5B).
The present inventors further disclose that the effect of PLK-1 inhibition is consistent among different types of breast cancer including triple-negative, […], and ER-PR negative breast cancers, as shown through the actions induced by PLK-1 inhibitor volasertib on MDA-MB-231, MCF7, and SKBR3 cell lines, namely increasing the expression of TTP, decreasing the HuR level, and downregulating the TTP target uPA. […] Accordingly, the present inventor discloses that any protein kinase inhibitor which post-transcriptionally regulates expression of cancer-related genes is suitable for precision cancer therapy. Further disclosed is a method of treatment of cancer comprising administering said protein kinase inhibitor, to a patient in need thereof.

Setting [6] is: MDA-MB-231, MCF7, and SKBR3 cell lines.

For the compound `CC[C@@H]1C(=O)N(C)c2cnc(Nc3ccc(C(=O)N[C@H]4CC[C@H](N5CCN(CC6CC6)CC5)CC4)cc3OC)nc2N1C(C)C` [volasertib], the “expression of all ARE-containing cancer genes (IL-8, SLC2A1, uPA, uPAR, CXCR4, MMP13, PDL1, HuR)” value in assay [1] is reported as “significantly reduced”. The “ARE-dependent mRNA regulation confirmed in later stages of screening compared to a non-ARE reporter” value in assay [2] is reported as “confirmed to be involved in ARE-dependent mRNA regulation”. Further, in assay [3], the “half-life of uPA mRNA” value worked out at 30 min. In assay [4], the cell migration entry is reported as “reduce breast cancer cells migration”. Further, in assay [5] (MCF7, MDA-MB-231 and SKBR3, most of the cancer cell lines), the “level of ARE-containing mRNA uPA in cancer cell lines” value is recorded as “reduction”. Moreover, in assay [5] (setting [6]), the HuR level entry is reported as “decreasing”, the “TTP target uPA” value is reported as “downregulating” and the “expression of TTP” value was “increasing”.
